{"source": "patent US20220401500A1", "about": "“BACTERIA AND HERBAL EXTRACT NUTRACEUTICAL BLENDS FOR LUNG HEALTH MAINTENANCE” (THE UAB RESEARCH FOUNDATION, priority 2021, published 2022)", "key": {"Ac-PGP": {"tested_on": "Ac-PGP", "assay": "Loss of function of Ac-PGP by treatment with RTR in vivo", "design": "species or system mouse"}, "[1]": {"tested_on": "probiotic strains RSB11, RSB12, or RSB13", "assay": "Culture growth of probiotic strains with herbal extracts or Vitamin D", "format": "cell-based, Lactobacillus", "conditions": "number of colonies per plate; FIG. 11"}, "C57BL/6 mouse pups": {"tested_on": "C57BL/6 mouse pups", "assay": "In vivo (mouse) dysbiosis model of chronic lung disease, LPS-treated pups"}}}
{"substance": "Arginine-Threonine-Arginine [RTR]", "values": [{"measurement": "chronic lung disease", "setting": "Ac-PGP; in vivo, FIG. 9", "result": "protective"}, {"measurement": "RAC", "setting": "Ac-PGP; noxious stimuli, LPS+RTR vs LPS alone, P<0.05, FIG. 9B", "result": "significantly higher"}, {"measurement": "MPO concentrations", "setting": "Ac-PGP; noxious stimuli, LPS+RTR vs LPS alone, P<0.05, FIG. 9C", "result": "significantly lower"}, {"measurement": "RVH", "setting": "Ac-PGP; noxious stimuli, LPS+RTR vs LPS alone, P<0.05, FIG. 9D", "result": "significantly less severe"}]}
{"substance": "N-acetyl-Proline-Glycine-Proline [Ac-PGP]", "values": [{"measurement": "NE concentrations", "setting": "mice; BALF, normoxia and noxious stimuli, P<0.05, FIG. 8C", "result": "increased"}, {"measurement": "MPO concentration", "setting": "mice; ELISA, normoxia and noxious stimuli, P<0.05, FIG. 8B", "result": "increased"}, {"measurement": "chronic lung disease", "setting": "mice; gain of function, in vivo, FIG. 8", "result": "causes chronic lung disease"}, {"measurement": "RAC counts", "setting": "mice; normoxia and noxious stimuli, P<0.05, FIG. 8A", "result": "decreased"}, {"measurement": "right ventricular hypertrophy (RVH)", "setting": "mice; normoxia and noxious stimuli, P<0.05, FIG. 8D", "result": "increased"}]}
{"substance": "Vitamin D", "values": [{"measurement": "culture growth of probiotic strains RSB11, RSB12, RSB13", "setting": "[1]", "result": "do not have an inhibitory effect"}]}
{"substance": "lipopolysaccharide [LPS]", "values": [{"measurement": "Ac-PGP levels", "setting": "C57BL/6 mouse pups; BALF, by HPLC, vs controls, P<0.05, FIG. 7E", "result": "significantly increased"}, {"measurement": "myeloperoxidase (MPO) levels", "setting": "C57BL/6 mouse pups; BALF, vs controls, P<0.05, FIG. 7C", "result": "significantly increased"}, {"measurement": "neutrophil elastase (NE) levels", "setting": "C57BL/6 mouse pups; BALF, vs controls, P<0.05, FIG. 7D", "result": "significantly increased"}, {"measurement": "lung tissue structure", "setting": "C57BL/6 mouse pups; LPS-treated C57BL/6 mouse pups, FIG. 7A", "result": "alveolar hypoplasia and simplification"}, {"measurement": "radial alveolar counts (RAC)", "setting": "C57BL/6 mouse pups; vs controls, P<0.05, FIG. 7B", "result": "significantly decreased"}]}
